{"source": "paper PMC6356581", "about": "“Fragment-Based Structural Optimization of a Natural Product Itampolin A as a p38α Inhibitor for Lung Cancer” (Marine Drugs, 2019)", "data": [{"target": "MAPK14/p38α (Homo sapiens, UniProt Q16539)", "sequence (Q16539 whole entry)": "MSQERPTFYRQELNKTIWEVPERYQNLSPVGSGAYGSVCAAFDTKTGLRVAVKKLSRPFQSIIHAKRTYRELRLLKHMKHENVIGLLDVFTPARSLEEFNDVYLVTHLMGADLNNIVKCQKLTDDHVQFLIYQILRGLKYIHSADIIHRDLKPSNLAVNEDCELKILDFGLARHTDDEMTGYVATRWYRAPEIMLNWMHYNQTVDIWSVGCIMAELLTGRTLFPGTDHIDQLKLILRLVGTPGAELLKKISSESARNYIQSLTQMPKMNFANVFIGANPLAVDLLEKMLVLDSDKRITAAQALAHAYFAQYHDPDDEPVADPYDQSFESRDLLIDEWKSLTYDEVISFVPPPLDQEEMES", "test": "p38α MAP kinase activity based on the rate of phosphorylation of ATF-2 (TR-FRET)", "type": "biochemical", "settings": "90 μM ATP, 0.4 μM GFP-ATF2 (19–96), 1 ng/mL MAPK14/p38α, 1 h RT; read-out: p38α MAP kinase inhibitory activity IC50", "procedure": "4.3. The p38α MAP Kinase Activity Based on the Rate of Phosphorylation of ATF-2\nKinase reaction buffer composition: 50 mM HEPES (pH 7.5), 10 mM MgCl2, 0.01% BRIJ-35 and 1 mM EGTA. Titration MAPK14/p38α at 90 μM ATP: Prepare MAPK14/p38α in kinase buffer at a concentration of 500 ng/mL. Perform two-fold serial dilution using kinase buffer from 500 ng/mL, 16 dose points. Add 5 μL of the serially diluted MAPK14/p38α into the 384-well plate in triplicate. Prepare 1 mL of 0.8 μM substrate GFP-ATF2 (19–96) and 180 μMATP in kinase reaction buffer. The reaction was carried out by adding 5 μL of the substrate GFP-ATF2 (19–96) and ATP solution into each well of the assay plate. Seal the assay plate and incubate for 1 h at room temperature (RT).\nAn amount of 4 μL MAPK14/p38α was added to each well of the 384-well assay plate. Incubate for 15 min at RT. Finally, 4 μL substrate GFP-ATF2 (19–96) and ATP in kinase reaction buffer were added to start the reaction. The final concentrations of MAPK14/p38α, Substrate, and ATP were 1 ng/mL, 0.4 μM, and 90 μM, respectively. Incubate for 1 h at RT. Add 10 μL/well of antibody solution. The final concentrations of EDTA and antibody were 10 mM and 2 nM respectively. Incubate for 30 min at RT.", "units": {"IC50": "nM"}, "values": [{"smiles": "CCOc1ccc(CC(=O)N[C@H](Cc2cc(Br)c(OC)c(Br)c2)C(=O)NCCc2cc(Br)c(O)c(Br)c2)cc1", "note": "[Compound 4b]", "IC50": "492 ± 46.2"}, {"smiles": "CCCCOc1ccc(CC(=O)N[C@H](Cc2cc(Br)c(OC)c(Br)c2)C(=O)NCCc2cc(Br)c(O)c(Br)c2)cc1", "note": "[Compound 4d]", "IC50": "806 ± 139"}, {"smiles": "COc1c(Br)cc(C[C@@H](NC(=O)Cc2cccc(Cl)c2)C(=O)NCCc2cc(Br)c(O)c(Br)c2)cc1Br", "note": "[Compound 4i]", "IC50": "91 ± 11.1"}, {"smiles": "COc1c(Br)cc(C[C@@H](NC(=O)Cc2ccc(Br)cc2)C(=O)NCCc2cc(Br)c(O)c(Br)c2)cc1Br", "note": "[Compound 4k]", "IC50": "832 ± 12.1"}, {"smiles": "COc1c(Br)cc(C[C@@H](NC(=O)Cc2ccc(F)cc2)C(=O)NCCc2cc(Br)c(O)c(Br)c2)cc1Br", "note": "[Compound 4l]", "IC50": "618 ± 87.7"}, {"smiles": "COc1c(Br)cc(C[C@@H](NC(=O)Cc2ccccc2F)C(=O)NCCc2cc(Br)c(O)c(Br)c2)cc1Br", "note": "[Compound 4m]", "IC50": "78.6 ± 59.2"}, {"smiles": "COc1c(Br)cc(C[C@@H](NC(=O)Cc2ccc(OCCCN3CCOCC3)cc2)C(=O)NCCc2cc(Br)c(O)c(Br)c2)cc1Br", "note": "[Compound 4o]", "IC50": "138 ± 13.6"}, {"smiles": "COc1ccc(NC(=O)N[C@H](Cc2cc(Br)c(OC)c(Br)c2)C(=O)NCCc2cc(Br)c(O)c(Br)c2)cc1", "note": "[Compound 5a]", "IC50": "112 ± 12"}, {"smiles": "CCOc1ccc(NC(=O)N[C@H](Cc2cc(Br)c(OC)c(Br)c2)C(=O)NCCc2cc(Br)c(O)c(Br)c2)cc1", "note": "[Compound 5b]", "IC50": "346 ± 18.4"}, {"smiles": "CCCOc1ccc(NC(=O)N[C@H](Cc2cc(Br)c(OC)c(Br)c2)C(=O)NCCc2cc(Br)c(O)c(Br)c2)cc1", "note": "[Compound 5c]", "IC50": "167 ± 23.9"}, {"smiles": "CCCCOc1ccc(NC(=O)N[C@H](Cc2cc(Br)c(OC)c(Br)c2)C(=O)NCCc2cc(Br)c(O)c(Br)c2)cc1", "note": "[Compound 5d]", "IC50": "691 ± 38.4"}, {"smiles": "COc1c(Br)cc(C[C@@H](NC(=O)Nc2cccc(Cl)c2)C(=O)NCCc2cc(Br)c(O)c(Br)c2)cc1Br", "note": "[Compound 5i]", "IC50": "51.3 ± 4.5"}, {"smiles": "COc1c(Br)cc(C[C@@H](NC(=O)Nc2ccccc2Cl)C(=O)NCCc2cc(Br)c(O)c(Br)c2)cc1Br", "note": "[Compound 5j]", "IC50": "448 ± 64.1"}, {"smiles": "COc1c(Br)cc(C[C@@H](NC(=O)Nc2ccc(Br)cc2)C(=O)NCCc2cc(Br)c(O)c(Br)c2)cc1Br", "note": "[Compound 5k]", "IC50": "90.3 ± 2.7"}, {"smiles": "COc1c(Br)cc(C[C@@H](NC(=O)Nc2ccc(F)cc2)C(=O)NCCc2cc(Br)c(O)c(Br)c2)cc1Br", "note": "[Compound 5l]", "IC50": "110 ± 18.8"}, {"smiles": "COc1c(Br)cc(C[C@@H](NC(=O)Nc2ccccc2F)C(=O)NCCc2cc(Br)c(O)c(Br)c2)cc1Br", "note": "[Compound 5m]", "IC50": "71.4 ± 19.6"}, {"smiles": "COc1c(Br)cc(C[C@@H](NC(=O)Nc2ccc(C)cc2)C(=O)NCCc2cc(Br)c(O)c(Br)c2)cc1Br", "note": "[Compound 5n]", "IC50": "279 ± 28.9"}, {"smiles": "COc1c(Br)cc(CC(NC(=O)Nc2ccc(OCCCN3CCOCC3)cc2)C(=O)NCCc2cc(Br)c(O)c(Br)c2)cc1Br", "note": "(stereo not shown) [Compound 5o]", "IC50": "134 ± 26.3"}, {"smiles": "COc1ccc(NC(=O)NCCc2cc(Br)c(OC)c(Br)c2)cc1", "note": "[Compound 6a]", "IC50": "263 ± 3.3"}, {"smiles": "CCOc1ccc(NC(=O)NCCc2cc(Br)c(OC)c(Br)c2)cc1", "note": "[Compound 6b]", "IC50": "221 ± 4.2"}, {"smiles": "CCCOc1ccc(NC(=O)NCCc2cc(Br)c(OC)c(Br)c2)cc1", "note": "[Compound 6c]", "IC50": "701 ± 7.4"}, {"smiles": "CCC(C)Oc1ccc(NC(=O)NCCc2cc(Br)c(OC)c(Br)c2)cc1", "note": "(stereo not shown) [Compound 6e]", "IC50": "920.3 ± 6.1"}, {"smiles": "COCCOc1ccc(NC(=O)NCCc2cc(Br)c(OC)c(Br)c2)cc1", "note": "[Compound 6g]", "IC50": "11.7 ± 3"}, {"smiles": "COc1c(Br)cc(CCNC(=O)Nc2ccc(OC(C)C)cc2)cc1Br", "note": "[Compound 6h]", "IC50": "329 ± 44.2"}, {"smiles": "COc1c(Br)cc(CCNC(=O)Nc2cccc(Cl)c2)cc1Br", "note": "[Compound 6i]", "IC50": "17.5 ± 2.4"}, {"smiles": "COc1c(Br)cc(CCNC(=O)Nc2ccccc2Cl)cc1Br", "note": "[Compound 6j]", "IC50": "71.2 ± 4.5"}, {"smiles": "COc1c(Br)cc(CCNC(=O)Nc2ccc(Br)cc2)cc1Br", "note": "[Compound 6k]", "IC50": "169 ± 2.6"}, {"smiles": "COc1c(Br)cc(CCNC(=O)Nc2ccc(F)cc2)cc1Br", "note": "[Compound 6l]", "IC50": "21.5 ± 4.6"}, {"smiles": "COc1c(Br)cc(CCNC(=O)Nc2ccccc2F)cc1Br", "note": "[Compound 6m]", "IC50": "13.6 ± 3"}, {"smiles": "COc1c(Br)cc(CCNC(=O)Nc2ccc(C)cc2)cc1Br", "note": "[Compound 6n]", "IC50": "300 ± 11.7"}, {"smiles": "COc1c(Br)cc(CCNC(=O)Nc2ccc(OCCCN3CCOCC3)cc2)cc1Br", "note": "[Compound 6o]", "IC50": "7.9 ± 1.7"}]}, {"test_system": "non-small cell lung A549 cells", "test": "not given", "design": "method as in doi:10.2174/1570179414666170215092631", "settings": "previous study; cited from earlier work", "values": [{"smiles": "COc1c(Br)cc(C[C@@H](NC(=O)Cc2ccc(OCCCNC(C)=O)cc2)C(=O)NCCc2cc(Br)c(O)c(Br)c2)cc1Br", "note": "[(−)-itampolin A]", "inhibitory activity against non-small cell lung A549 cells": "significant inhibitory activity"}]}, {"test_system": "A549 cells", "test": "MTT cell proliferation inhibition assay", "type": "cell-based", "settings": "Homo sapiens; A549, 48 h incubation", "procedure": "4.4. MTT Assay The A549 cell lines were cultured using DMEM and RPMI, respectively, in standard humidified incubation conditions at 37 °C in 5% CO2. Then, the cancer cells (1000/well) were placed on 96-well plates in triplicate. After 24 h incubation, cells were treated with a series of concentrations of the brominated tyrosine derivatives (1, 10, 20, 80 μmol/L). The positive control contained the same concentrations of BIRB-796, and the negative control received the same volume of DMSO. After 48h incubation, cells were stained with 5% MTT, and the optical density was recorded at an absorbance wavelength of 570 nm.", "units": {"IC50": "nM"}, "values": [{"smiles": "COc1c(Br)cc(CCNC(=O)Nc2ccc(OCCCN3CCOCC3)cc2)cc1Br", "note": "[Compound 6o]", "IC50": 660}]}, {"test_system": "non-small cell lung cancer", "test": "not given", "design": "method as in doi:10.2174/1570179414666170215092631", "settings": "previous study; cited from earlier work", "values": [{"smiles": "COc1c(Br)cc(C[C@@H](NC(=O)Cc2ccc(OCCCNC(C)=O)cc2)C(=O)NCCc2cc(Br)c(O)c(Br)c2)cc1Br", "note": "[Itampolin A]", "antitumor activity against non-small cell lung cancer": "potent concentration-dependent antitumor activity"}]}]}
